Experimental data reported in patent publication US11208412B2 (DAEGU-GYEONGBUK MEDICAL INNOVATION FOUNDATION, priority 2017, dated 2021).

Legend:
Experiment in all cases: Kinase selectivity, DiscoverX scanMAX Kinase assay panel (% control)
Format in all cases: binding
[1] = biological target: T1, kinases of the scanMAX Kinase assay panel (Homo sapiens, UniProt O15530); conditions: PDPK1; 1 uM
T1 construct: purchased DiscoverX Co. (contract measurement) scanMAX Kinase assay panel
T1 sequence (O15530 1-556): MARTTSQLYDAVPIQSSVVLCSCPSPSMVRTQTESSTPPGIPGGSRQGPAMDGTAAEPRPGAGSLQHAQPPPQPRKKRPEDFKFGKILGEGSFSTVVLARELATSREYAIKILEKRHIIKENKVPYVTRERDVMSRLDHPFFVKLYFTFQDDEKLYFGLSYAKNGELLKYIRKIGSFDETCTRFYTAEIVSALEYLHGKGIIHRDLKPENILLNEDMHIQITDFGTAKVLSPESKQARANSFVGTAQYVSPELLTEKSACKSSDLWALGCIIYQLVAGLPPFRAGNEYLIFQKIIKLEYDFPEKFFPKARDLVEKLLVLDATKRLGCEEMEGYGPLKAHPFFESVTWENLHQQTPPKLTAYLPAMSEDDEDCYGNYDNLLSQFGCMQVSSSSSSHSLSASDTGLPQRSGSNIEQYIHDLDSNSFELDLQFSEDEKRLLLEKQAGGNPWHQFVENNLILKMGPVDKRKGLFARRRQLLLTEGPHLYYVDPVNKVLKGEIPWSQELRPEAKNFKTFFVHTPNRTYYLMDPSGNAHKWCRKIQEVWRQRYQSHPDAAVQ
How it was run: (§1)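 Single-point screen, 1 uM cpd in DMSO. % ctrl = (cpd − pos ctrl)/(neg ctrl − pos ctrl)×100; pos ctrl = 0%, DMSO neg ctrl = 100%. Hit cutoff <35%.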

[2] = biological target: T2, kinases of the scanMAX Kinase assay panel (Homo sapiens, UniProt P53667); conditions: LIMK1; 1 uM
T2 construct: purchased DiscoverX Co. (contract measurement) scanMAX Kinase assay panel
How it was run: as §1

[3] = biological target: T3, kinases of the scanMAX Kinase assay panel (Homo sapiens, UniProt P45983); conditions: JNK1; 1 uM
T3 construct: purchased DiscoverX Co. (contract measurement) scanMAX Kinase assay panel
How it was run: as §1

[4] = biological target: T4, kinases of the scanMAX Kinase assay panel (Homo sapiens, UniProt P00519, E255K); conditions: ABL1(E255K)-phosphorylated; 1 uM
T4 construct: purchased DiscoverX Co. (contract measurement) scanMAX Kinase assay panel
T4 sequence (P00519 whole entry E255K): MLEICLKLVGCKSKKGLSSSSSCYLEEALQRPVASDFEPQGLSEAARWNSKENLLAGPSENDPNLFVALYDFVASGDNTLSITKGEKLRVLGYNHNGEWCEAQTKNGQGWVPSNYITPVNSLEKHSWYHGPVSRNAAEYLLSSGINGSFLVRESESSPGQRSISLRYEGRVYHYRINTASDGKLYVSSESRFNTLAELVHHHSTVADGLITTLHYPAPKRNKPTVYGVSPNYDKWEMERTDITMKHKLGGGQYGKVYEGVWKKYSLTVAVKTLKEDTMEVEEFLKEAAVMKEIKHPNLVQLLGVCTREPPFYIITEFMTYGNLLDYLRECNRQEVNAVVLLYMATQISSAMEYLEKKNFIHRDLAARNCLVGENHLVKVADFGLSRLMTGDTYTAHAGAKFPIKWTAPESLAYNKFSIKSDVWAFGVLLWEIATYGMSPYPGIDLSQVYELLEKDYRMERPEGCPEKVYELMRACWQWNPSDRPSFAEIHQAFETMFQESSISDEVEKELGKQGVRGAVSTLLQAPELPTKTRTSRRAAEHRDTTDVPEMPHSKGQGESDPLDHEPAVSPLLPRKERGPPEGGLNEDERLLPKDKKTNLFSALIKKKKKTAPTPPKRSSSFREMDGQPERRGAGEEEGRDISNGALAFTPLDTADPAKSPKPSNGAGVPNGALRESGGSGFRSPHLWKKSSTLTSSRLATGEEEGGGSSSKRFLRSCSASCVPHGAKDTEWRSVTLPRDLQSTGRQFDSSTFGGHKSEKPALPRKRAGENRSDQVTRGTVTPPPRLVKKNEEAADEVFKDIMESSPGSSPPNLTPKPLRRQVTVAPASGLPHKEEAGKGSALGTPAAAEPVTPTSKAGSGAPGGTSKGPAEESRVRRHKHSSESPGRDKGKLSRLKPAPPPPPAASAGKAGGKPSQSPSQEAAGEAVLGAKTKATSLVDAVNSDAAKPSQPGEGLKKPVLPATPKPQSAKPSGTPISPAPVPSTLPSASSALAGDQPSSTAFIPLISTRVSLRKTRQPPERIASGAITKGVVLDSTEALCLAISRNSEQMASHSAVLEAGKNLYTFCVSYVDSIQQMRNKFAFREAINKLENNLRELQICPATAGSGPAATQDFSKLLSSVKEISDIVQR
How it was run: as §1

[5] = biological target: T5, kinases of the scanMAX Kinase assay panel (Homo sapiens, UniProt Q13153); conditions: PAK1; 1 uM
T5 construct: purchased DiscoverX Co. (contract measurement) scanMAX Kinase assay panel
How it was run: as §1

[6] = biological target: T6, kinases of the scanMAX Kinase assay panel (Homo sapiens, UniProt P35968); conditions: kinase VEGFR2; 1 uM in DMSO
T6 construct: purchased DiscoverX Co. (contract measurement) scanMAX Kinase assay panel
T6 sequence (P35968 20-1356): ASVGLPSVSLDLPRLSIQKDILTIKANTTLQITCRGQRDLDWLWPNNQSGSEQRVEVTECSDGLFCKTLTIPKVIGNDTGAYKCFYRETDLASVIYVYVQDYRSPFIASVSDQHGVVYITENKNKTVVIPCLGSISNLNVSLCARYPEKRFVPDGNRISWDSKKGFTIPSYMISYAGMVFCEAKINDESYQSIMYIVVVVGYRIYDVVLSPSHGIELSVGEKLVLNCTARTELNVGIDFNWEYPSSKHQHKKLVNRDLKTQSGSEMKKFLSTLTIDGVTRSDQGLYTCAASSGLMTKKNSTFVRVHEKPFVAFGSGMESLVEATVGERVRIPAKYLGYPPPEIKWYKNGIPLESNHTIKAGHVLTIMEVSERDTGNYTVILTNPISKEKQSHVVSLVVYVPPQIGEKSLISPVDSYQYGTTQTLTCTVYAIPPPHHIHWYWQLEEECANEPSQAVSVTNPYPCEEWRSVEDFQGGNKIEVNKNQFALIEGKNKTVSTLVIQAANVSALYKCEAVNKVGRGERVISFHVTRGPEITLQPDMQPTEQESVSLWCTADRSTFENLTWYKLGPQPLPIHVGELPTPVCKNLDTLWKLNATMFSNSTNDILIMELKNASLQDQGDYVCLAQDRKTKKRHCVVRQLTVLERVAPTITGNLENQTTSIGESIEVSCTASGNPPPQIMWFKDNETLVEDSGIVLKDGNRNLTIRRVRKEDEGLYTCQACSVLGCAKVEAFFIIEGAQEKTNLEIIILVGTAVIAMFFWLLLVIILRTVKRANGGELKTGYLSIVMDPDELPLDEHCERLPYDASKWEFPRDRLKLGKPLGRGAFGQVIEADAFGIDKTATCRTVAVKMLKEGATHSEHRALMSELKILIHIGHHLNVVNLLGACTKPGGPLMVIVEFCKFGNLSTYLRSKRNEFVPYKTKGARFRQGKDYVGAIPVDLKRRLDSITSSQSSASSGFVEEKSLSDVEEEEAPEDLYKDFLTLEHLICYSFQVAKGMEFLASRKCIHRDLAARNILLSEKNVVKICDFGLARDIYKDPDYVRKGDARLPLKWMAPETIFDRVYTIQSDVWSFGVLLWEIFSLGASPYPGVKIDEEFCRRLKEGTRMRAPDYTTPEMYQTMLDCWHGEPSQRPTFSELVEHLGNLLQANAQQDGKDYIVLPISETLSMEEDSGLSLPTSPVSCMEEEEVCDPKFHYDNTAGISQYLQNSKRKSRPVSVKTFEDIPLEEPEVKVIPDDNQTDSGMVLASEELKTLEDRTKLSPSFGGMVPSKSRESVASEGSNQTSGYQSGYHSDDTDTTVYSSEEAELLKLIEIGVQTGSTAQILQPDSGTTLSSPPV
How it was run: as §1

[7] = biological target: T7, kinases of the scanMAX Kinase assay panel (Homo sapiens, UniProt Q9Y243); conditions: AKT3; 1 uM
T7 construct: purchased DiscoverX Co. (contract measurement) scanMAX Kinase assay panel
How it was run: as §1

[8] = biological target: T8, kinases of the scanMAX Kinase assay panel (Homo sapiens, UniProt O00506); conditions: kinase YSK1; 1 uM in DMSO
T8 construct: purchased DiscoverX Co. (contract measurement) scanMAX Kinase assay panel
How it was run: as §1

[9] = biological target: T9, kinases of the scanMAX Kinase assay panel (Homo sapiens, UniProt P0C1S8); conditions: kinase WEE2; 1 uM in DMSO
T9 construct: purchased DiscoverX Co. (contract measurement) scanMAX Kinase assay panel
How it was run: as §1

[10] = biological target: T10, kinases of the scanMAX Kinase assay panel (Homo sapiens, UniProt Q96SB4); conditions: kinase SRPK1; 1 uM in DMSO
T10 construct: purchased DiscoverX Co. (contract measurement) scanMAX Kinase assay panel
T10 sequence (Q96SB4 whole entry): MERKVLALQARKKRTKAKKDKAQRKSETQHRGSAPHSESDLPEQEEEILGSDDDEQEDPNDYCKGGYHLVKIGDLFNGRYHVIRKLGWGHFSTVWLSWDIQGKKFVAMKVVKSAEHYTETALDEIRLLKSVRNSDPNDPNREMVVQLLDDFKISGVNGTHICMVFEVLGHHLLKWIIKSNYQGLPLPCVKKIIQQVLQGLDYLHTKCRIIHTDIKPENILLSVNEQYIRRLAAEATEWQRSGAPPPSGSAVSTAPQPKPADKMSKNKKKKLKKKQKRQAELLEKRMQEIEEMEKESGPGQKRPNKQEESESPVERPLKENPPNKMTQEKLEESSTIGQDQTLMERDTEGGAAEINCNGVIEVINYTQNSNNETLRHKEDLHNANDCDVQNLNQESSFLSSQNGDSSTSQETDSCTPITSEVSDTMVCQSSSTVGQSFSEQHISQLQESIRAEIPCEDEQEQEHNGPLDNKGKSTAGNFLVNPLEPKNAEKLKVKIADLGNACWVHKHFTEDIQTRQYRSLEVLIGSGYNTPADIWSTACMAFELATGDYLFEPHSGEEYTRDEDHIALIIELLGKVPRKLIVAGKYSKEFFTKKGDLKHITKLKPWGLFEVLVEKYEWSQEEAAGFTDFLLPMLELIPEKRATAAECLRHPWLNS
How it was run: as §1

[11] = biological target: T11, kinases of the scanMAX Kinase assay panel (Homo sapiens, UniProt P49674); conditions: CSNK1E; 1 uM
T11 construct: purchased DiscoverX Co. (contract measurement) scanMAX Kinase assay panel
How it was run: as §1

[12] = biological target: T12, kinases of the scanMAX Kinase assay panel (Homo sapiens, UniProt P29376); conditions: LTK; 1 uM
T12 construct: purchased DiscoverX Co. (contract measurement) scanMAX Kinase assay panel
How it was run: as §1

[13] = biological target: T13, kinases of the scanMAX Kinase assay panel (Homo sapiens, UniProt P49336); conditions: CDK8; 1 uM
T13 construct: purchased DiscoverX Co. (contract measurement) scanMAX Kinase assay panel
How it was run: as §1

[14] = biological target: T14, kinases of the scanMAX Kinase assay panel (Homo sapiens, UniProt P27361); conditions: ERK1; 1 uM
T14 construct: purchased DiscoverX Co. (contract measurement) scanMAX Kinase assay panel
T14 sequence (P27361 whole entry): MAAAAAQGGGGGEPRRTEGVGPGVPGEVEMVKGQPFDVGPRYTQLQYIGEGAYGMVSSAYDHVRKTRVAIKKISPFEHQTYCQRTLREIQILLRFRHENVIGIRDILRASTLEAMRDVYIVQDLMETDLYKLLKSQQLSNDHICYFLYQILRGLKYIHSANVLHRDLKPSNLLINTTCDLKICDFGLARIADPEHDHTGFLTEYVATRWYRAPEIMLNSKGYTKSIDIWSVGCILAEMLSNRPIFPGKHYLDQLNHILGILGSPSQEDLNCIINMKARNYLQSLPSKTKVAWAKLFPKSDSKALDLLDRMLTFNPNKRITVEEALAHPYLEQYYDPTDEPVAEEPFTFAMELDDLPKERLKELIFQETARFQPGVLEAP
How it was run: as §1

[15] = biological target: T15, kinases of the scanMAX Kinase assay panel (Homo sapiens, UniProt O95819); conditions: MAP4K4; 1 uM
T15 construct: purchased DiscoverX Co. (contract measurement) scanMAX Kinase assay panel
T15 sequence (O95819 whole entry): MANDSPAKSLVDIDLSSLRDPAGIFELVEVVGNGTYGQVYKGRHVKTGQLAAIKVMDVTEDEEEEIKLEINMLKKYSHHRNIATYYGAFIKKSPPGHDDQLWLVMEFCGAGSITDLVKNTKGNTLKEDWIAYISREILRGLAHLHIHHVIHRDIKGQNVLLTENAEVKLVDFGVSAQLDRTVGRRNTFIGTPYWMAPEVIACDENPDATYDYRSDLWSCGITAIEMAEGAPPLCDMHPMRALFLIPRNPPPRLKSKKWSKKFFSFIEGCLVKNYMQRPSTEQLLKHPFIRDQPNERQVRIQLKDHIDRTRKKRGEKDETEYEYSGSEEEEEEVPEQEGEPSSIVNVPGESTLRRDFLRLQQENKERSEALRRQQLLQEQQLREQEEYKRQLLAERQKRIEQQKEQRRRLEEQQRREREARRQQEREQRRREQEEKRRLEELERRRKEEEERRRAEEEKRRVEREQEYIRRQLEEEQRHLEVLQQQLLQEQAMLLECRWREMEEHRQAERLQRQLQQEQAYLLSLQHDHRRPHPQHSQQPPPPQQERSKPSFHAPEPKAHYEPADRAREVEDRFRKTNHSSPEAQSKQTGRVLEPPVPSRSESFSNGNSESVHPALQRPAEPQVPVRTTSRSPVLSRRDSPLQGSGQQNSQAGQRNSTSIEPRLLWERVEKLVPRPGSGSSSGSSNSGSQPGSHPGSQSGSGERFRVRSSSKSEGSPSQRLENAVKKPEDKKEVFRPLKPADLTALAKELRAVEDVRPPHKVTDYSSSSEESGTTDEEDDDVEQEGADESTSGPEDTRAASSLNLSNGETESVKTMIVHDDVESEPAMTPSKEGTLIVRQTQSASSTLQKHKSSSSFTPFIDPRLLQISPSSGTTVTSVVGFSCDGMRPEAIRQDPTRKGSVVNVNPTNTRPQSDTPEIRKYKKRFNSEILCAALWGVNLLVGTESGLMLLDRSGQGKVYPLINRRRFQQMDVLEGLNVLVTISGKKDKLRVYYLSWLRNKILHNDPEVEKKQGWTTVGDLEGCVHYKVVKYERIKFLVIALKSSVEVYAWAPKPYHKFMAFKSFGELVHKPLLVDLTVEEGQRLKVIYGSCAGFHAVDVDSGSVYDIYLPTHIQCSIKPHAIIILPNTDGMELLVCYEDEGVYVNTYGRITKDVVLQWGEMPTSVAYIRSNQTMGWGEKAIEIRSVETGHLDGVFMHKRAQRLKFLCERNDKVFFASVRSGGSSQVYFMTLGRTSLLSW
How it was run: as §1

[16] = biological target: T16, kinases of the scanMAX Kinase assay panel (Homo sapiens, UniProt P19525); conditions: PRKR; 1 uM
T16 construct: purchased DiscoverX Co. (contract measurement) scanMAX Kinase assay panel
How it was run: as §1

[17] = biological target: T17, kinases of the scanMAX Kinase assay panel (Homo sapiens, UniProt P19784); conditions: CSNK2A2; 1 uM
T17 construct: purchased DiscoverX Co. (contract measurement) scanMAX Kinase assay panel
T17 sequence (P19784 whole entry): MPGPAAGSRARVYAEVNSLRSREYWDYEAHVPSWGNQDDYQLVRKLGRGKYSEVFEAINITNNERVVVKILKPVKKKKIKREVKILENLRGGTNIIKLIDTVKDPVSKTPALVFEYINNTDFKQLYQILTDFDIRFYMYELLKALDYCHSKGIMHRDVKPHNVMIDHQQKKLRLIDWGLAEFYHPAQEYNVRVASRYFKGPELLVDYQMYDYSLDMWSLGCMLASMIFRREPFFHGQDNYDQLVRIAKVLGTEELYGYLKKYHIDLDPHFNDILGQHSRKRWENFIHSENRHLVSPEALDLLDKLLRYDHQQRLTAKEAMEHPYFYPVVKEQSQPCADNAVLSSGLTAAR
How it was run: as §1

Row | SMILES | remaining binding at 1 µM [1] [%] | remaining binding at 1 µM [2] [%] | remaining binding at 1 µM [3] [%] | remaining binding at 1 µM [4] [%] | remaining binding at 1 µM [5] [%] | remaining binding at 1 µM [6] [%] | remaining binding at 1 µM [7] [%] | remaining binding at 1 µM [8] [%] | remaining binding at 1 µM [9] [%] | remaining binding at 1 µM [10] [%] | remaining binding at 1 µM [11] [%] | remaining binding at 1 µM [12] [%] | remaining binding at 1 µM [13] [%] | remaining binding at 1 µM [14] [%] | remaining binding at 1 µM [15] [%] | remaining binding at 1 µM [16] [%] | remaining binding at 1 µM [17] [%]
1 | CNc1nc(Nc2ccc(C(=O)N3CCOCC3)cc2OC)nc2[nH]cc(C#N)c12 [Example 1, 2-((2-methoxy-4-(morpholine-4-carbonyl)phenyl)amino)-4-(methylamino)-7H-pyrrolo[2,3-d]pyrimidine-5-carbonitrile] | 81 | 100 | 0 | 91 | 100 | 63 | 70 | 97 | 100 | 66 | 12 | 6.8 | 100 | 88 | 82 | 95 | 76
2 | CC1(Nc2nc(Nc3cnn([C@H]4CCN(C5COC5)C[C@@H]4F)c3Cl)nc3[nH]cc(C#N)c23)CC1 [Example 52, 2-((5-chloro-1-((3S,4S)-3-fluoro-1-(oxetane-3-yl)piperidine-4-yl)-1H-pyrazole-4-yl)amino)((1-methylcyclopropyl)amino)-7H-pyrrolo[2,3-d]pyrimidine-5-carbonitrile] | 70 | 98 | 0 | 0.6 | 75 | 3.7 | 4.5 | 28 | 100 | 0.05 | 0.15 | 3.4 | 76 | 42 | 18 | 42 | 11
3 | CCNc1nc(Nc2ccc(C(=O)N3CCC(N4CCOCC4)CC3)cc2OC)nc2[nH]cc(C(F)(F)F)c12 [Example 104, (4-((4-(ethylamino)-5-(trifluoromethyl)-7H-pyrrolo[2,3-d]pyrimidine-2-yl)amino)-3-methoxyphenyl)(4-morpholinopiperidine-1-yl)methanone] | 100 | 100 | 25 | 100 | 71 | 73 | 100 | 81 | 100 | 100 | 4.2 | 3.7 | 86 | 100 | 100 | 85 | 95
